In PMC4348352 (Bioorganic & medicinal chemistry letters, 2015) one finds MIC and MBC data, which are given here for 3 compounds.

SMILES strings stand for the structures. In brackets after ≈: the same amount, converted by molar mass.

The subject of assay [1] is B. anthracis. Particulars: cited from earlier work.
For assay [2], the system named is E. coli. Particulars: cited from earlier work.
The subject of assay [3] is S. aureus. The settings on record: cited from earlier work.
In assay [4] the test system is F. tularensis. The assay is described as follows: microbe, parasite or virus in culture. The settings on record: Francisella tularensis. Format: cell-based.
Assay [5] has as its system E. coli TolC-. The assay is described as follows: microbe, parasite or virus in culture. The format is cell-based. The settings on record: Escherichia coli.

Regarding `Cc1cc2ncn(Cc3ccc(Cl)c(Cl)c3)c2cc1C` [Compound 1], the MIC is 9.4 µg/mL (≈ 30.8 µM) in assay [1], greater than 200 µg/mL in assay [2] and 25 µg/mL (≈ 81.9 µM) in assay [3].
In assay [4], `CC(c1ccc(Cl)c(Cl)c1)n1cnc2cc3c(cc21)CCC3` (stereo not drawn) [Compound 3] registered an MIC of 3.1 to 6.3 µg/mL (≈ 9.36 to 19 µM).
In turn, `CC(c1ccc(Cl)c(Cl)c1)n1cnc2cc3c(cc21)CCCC3` (stereo not drawn) [Compound 4] returned an MIC in assay [4] of 3.1 to 6.3 µg/mL (≈ 8.98 to 18.2 µM). This compound registered an MBC in assay [5] greater than 25 µg/mL.
